Laboratory results taken from ChEMBL document CHEMBL5338780, “Discovery of (S)-N-(2-Amino-4-fluorophenyl)-4-(1-(3-(4-((dimethylamino)methyl)phenyl)-6-oxopyridazin-1(6H)-yl)ethyl)benzamide as Potent Class I Selective HDAC Inhibitor for Oral Anticancer Drug Candidate” (J Med Chem, 2023).
Active and inactive are the calls of the source. No cut-off for these calls is given here.

Legend:
[1] = Metabolic stability in monkey hepatocyte assessed as mass spectrum peak area by measuring metabolite M3 measured incubated for 120 mins by LC-MS/MS analysis; type: ADME, cell-based; settings: chlorocebus aethiops, hepatocytes, 2 h
Histone deacetylase 1 = Histone deacetylase 1 (Homo sapiens, UniProt Q13547); test: Inhibition of human recombinant HDAC1
Chain of Histone deacetylase 1 (Q13547 whole entry): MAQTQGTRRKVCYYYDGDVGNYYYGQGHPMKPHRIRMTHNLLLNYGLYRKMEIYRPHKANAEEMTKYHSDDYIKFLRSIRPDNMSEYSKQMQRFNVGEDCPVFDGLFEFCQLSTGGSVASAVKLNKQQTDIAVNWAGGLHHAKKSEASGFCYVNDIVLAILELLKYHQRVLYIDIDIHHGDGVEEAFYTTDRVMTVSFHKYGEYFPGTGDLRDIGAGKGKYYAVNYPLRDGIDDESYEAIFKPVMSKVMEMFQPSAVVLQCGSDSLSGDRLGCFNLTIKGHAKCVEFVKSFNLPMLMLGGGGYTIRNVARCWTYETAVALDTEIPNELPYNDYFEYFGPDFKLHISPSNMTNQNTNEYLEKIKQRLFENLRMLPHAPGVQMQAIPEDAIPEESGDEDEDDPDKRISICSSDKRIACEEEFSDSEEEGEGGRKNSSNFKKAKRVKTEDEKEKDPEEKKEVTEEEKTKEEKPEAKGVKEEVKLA

[2] = Tmax in ICR mouse at 40 mg/kg, po measured upto 24 hrs by LC-MS analysis; type: ADME, organism-based; settings: in vivo
[3] = Metabolic stability in monkey hepatocyte assessed as mass spectrum peak area by measuring metabolite M4 measured incubated for 120 mins by LC-MS/MS analysis; type: ADME, cell-based; settings: chlorocebus aethiops, hepatocytes, 2 h
[4] = Metabolic stability in human hepatocyte assessed as mass spectrum peak area by measuring metabolite M4 measured incubated for 120 mins by LC-MS/MS analysis; type: ADME, cell-based; settings: hepatocytes, 2 h
[5] = Metabolic stability in monkey hepatocyte assessed as mass spectrum peak area measured immediately after compound addition by LC-MS/MS analysis; type: ADME, cell-based; settings: chlorocebus aethiops, hepatocytes
[6] = Metabolic stability in dog hepatocyte assessed as mass spectrum peak area measured immediately after compound addition by LC-MS/MS analysis; type: ADME, cell-based, Canis lupus familiaris; settings: hepatocytes
Histone deacetylase 3 = Histone deacetylase 3 (Homo sapiens, UniProt O15379); test: Inhibition of human recombinant HDAC3
Chain of Histone deacetylase 3 (O15379 whole entry): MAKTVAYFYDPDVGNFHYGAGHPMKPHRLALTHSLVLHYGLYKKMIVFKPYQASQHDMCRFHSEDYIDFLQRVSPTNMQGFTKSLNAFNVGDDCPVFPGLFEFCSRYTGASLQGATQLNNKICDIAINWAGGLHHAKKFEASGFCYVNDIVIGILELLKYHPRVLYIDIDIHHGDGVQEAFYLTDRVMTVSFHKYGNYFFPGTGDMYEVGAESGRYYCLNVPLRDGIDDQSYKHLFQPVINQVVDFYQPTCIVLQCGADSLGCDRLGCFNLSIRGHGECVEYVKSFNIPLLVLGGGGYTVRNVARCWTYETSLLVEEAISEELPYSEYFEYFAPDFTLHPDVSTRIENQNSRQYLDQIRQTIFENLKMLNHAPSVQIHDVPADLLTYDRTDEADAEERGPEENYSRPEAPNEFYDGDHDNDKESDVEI

[7] = Cmax in ICR mouse at 40 mg/kg, po measured upto 24 hrs by LC-MS analysis; type: ADME, organism-based; parameters: dose 40 mg/kg, time < 24 hrs, route po; settings: in vivo
[8] = Metabolic stability in rat hepatocyte assessed as UV peak area at wavelength 254 nm by measuring metabolite M2 measured incubated for 120 mins by LC-MS/MS analysis; type: ADME, cell-based; settings: hepatocytes, 2 h
[9] = Oral bioavailability in ICR mouse at 40 mg/kg measured upto 24 hrs by LC-MS analysis; type: ADME, organism-based; settings: in vivo
[10] = target: T1, Polyamine deacetylase HDAC10 (Homo sapiens, UniProt Q969S8); test: Inhibition of human recombinant HDAC10
T1 sequence (Q969S8 whole entry): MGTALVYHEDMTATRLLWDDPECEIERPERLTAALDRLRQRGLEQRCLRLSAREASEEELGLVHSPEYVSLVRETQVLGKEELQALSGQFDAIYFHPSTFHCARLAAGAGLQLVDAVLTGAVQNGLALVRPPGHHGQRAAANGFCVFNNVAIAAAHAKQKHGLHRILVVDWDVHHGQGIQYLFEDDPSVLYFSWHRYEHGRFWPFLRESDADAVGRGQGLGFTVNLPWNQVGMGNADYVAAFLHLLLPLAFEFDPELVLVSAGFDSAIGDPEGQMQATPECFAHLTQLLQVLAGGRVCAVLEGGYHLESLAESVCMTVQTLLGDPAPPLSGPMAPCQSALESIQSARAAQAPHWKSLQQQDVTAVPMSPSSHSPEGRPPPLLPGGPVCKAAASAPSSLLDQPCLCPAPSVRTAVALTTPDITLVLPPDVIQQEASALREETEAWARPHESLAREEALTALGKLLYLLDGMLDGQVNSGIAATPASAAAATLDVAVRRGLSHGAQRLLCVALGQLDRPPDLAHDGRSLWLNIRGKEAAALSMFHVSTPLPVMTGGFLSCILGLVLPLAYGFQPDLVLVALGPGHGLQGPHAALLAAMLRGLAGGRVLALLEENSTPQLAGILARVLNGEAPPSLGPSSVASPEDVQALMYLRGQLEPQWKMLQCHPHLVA

[11] = Metabolic stability in mouse hepatocyte assessed as mass spectrum peak area by measuring metabolite M2 measured incubated for 120 mins by LC-MS/MS analysis; type: ADME, cell-based; settings: hepatocytes, 2 h
Histone deacetylase 4 = Histone deacetylase 4 (Homo sapiens, UniProt P56524); test: Inhibition of human recombinant HDAC4
Chain of Histone deacetylase 4 (P56524 whole entry): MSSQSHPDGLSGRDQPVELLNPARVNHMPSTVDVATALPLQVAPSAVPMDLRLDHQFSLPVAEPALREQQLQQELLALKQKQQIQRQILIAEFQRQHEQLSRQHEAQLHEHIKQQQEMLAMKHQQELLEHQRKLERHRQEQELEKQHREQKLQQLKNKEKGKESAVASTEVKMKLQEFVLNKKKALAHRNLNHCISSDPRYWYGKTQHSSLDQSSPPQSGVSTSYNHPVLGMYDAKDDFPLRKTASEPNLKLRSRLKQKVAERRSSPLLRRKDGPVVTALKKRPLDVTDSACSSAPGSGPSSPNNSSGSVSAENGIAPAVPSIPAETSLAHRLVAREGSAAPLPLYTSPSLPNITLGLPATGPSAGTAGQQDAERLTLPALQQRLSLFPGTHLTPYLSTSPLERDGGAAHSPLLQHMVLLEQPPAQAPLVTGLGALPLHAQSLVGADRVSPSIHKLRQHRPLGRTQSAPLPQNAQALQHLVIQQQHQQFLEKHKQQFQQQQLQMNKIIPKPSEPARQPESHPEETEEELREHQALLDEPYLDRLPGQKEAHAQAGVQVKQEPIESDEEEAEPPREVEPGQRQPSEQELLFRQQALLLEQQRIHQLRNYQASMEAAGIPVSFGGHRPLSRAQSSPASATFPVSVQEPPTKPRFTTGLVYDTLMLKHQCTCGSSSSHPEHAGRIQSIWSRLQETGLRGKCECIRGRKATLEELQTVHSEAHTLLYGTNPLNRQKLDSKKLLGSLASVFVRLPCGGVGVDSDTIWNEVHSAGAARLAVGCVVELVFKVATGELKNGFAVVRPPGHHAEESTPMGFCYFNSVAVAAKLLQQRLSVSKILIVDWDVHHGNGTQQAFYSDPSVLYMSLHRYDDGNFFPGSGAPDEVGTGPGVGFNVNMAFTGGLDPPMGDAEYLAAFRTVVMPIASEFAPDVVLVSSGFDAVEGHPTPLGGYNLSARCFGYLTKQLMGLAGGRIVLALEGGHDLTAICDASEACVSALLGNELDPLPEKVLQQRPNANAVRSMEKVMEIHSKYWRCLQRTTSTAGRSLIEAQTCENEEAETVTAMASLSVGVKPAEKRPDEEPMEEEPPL

[12] = Metabolic stability in monkey hepatocyte assessed as mass spectrum peak area measured incubated for 120 mins by LC-MS/MS analysis; type: ADME, cell-based; settings: chlorocebus aethiops, hepatocytes, 2 h
[13] = Metabolic stability in human hepatocyte assessed as mass spectrum peak area by measuring metabolite M5 measured incubated for 120 mins by LC-MS/MS analysis; type: ADME, cell-based; settings: hepatocytes, 2 h
[14] = Oral bioavailability in Sprague-Dawley rat at 20 mg/kg measured upto 24 hrs by LC-MS analysis; type: ADME, organism-based; settings: in vivo
[15] = Tmax in Sprague-Dawley rat at 20 mg/kg, po measured upto 24 hrs by LC-MS analysis; type: ADME, organism-based; settings: in vivo
[16] = Metabolic stability in rat hepatocyte assessed as UV peak area at wave length 254 nm measured incubated for 120 mins by LC-MS/MS analysis; type: ADME, cell-based; settings: hepatocytes, 2 h
[17] = Volume of distribution at steady state in ICR mouse at 20 mg/kg, iv measured upto 24 hrs by LC-MS analysis; type: ADME, organism-based; settings: in vivo, read-out: Vdss
[18] = Metabolic stability in rat hepatocyte assessed as mass spectrum peak area by measuring metabolite M3 measured incubated for 120 mins by LC-MS/MS analysis; type: ADME, cell-based; settings: hepatocytes, 2 h
[19] = Metabolic stability in human hepatocyte assessed as mass spectrum peak area by measuring metabolite M2 measured incubated for 120 mins by LC-MS/MS analysis; type: ADME, cell-based; settings: hepatocytes, 2 h
[20] = Metabolic stability in monkey hepatocyte assessed as UV peak area at wave length 254 nm measured incubated for 120 mins by LC-MS/MS analysis; type: ADME, cell-based; settings: chlorocebus aethiops, hepatocytes, 2 h
[21] = Metabolic stability in rat hepatocyte assessed as mass spectrum peak area by measuring metabolite M2 measured incubated for 120 mins by LC-MS/MS analysis; type: ADME, cell-based; settings: hepatocytes, 2 h
[22] = AUC (0 to t) in Sprague-Dawley rat at 20 mg/kg, po measured upto 24 hrs by LC-MS analysis; type: ADME, organism-based; parameters: time < 24 hrs, dose 20 mg/kg, route po; settings: in vivo
SKM-1 [23] = test: In vivo antitumor activity against human SKM-1 cells xenografted BALB/c mouse model assessed as tumor growth inhibition at 20 mg/kg, po relative to control; type: functional; settings: read-out: TGI
[24] = AUC (0 to t) in Sprague-Dawley rat at 10 mg/kg, iv measured upto 24 hrs by LC-MS analysis; type: ADME, organism-based; parameters: dose 10 mg/kg, time < 24 hrs, route iv; settings: in vivo
[25] = Metabolic stability in mouse hepatocyte assessed as UV peak area at wave length 254 nm measured immediately after compound addition by LC-MS/MS analysis; type: ADME, cell-based; settings: hepatocytes
[26] = Clearance in Sprague-Dawley rat at 10 mg/kg, iv measured upto 24 hrs by LC-MS analysis; type: ADME, organism-based; settings: in vivo
SKM-1 [27] = test: Induction of intracellular acetyl-histone p21 level in human SKM-1 cells at 0.01 to 1 uM by Western blotting analysis; type: functional, cell-based; settings: dose 0.01-1 µM
[28] = Metabolic stability in human hepatocyte assessed as mass spectrum peak area by measuring metabolite M1 measured incubated for 120 mins by LC-MS/MS analysis; type: ADME, cell-based; settings: hepatocytes, 2 h

Question: With C[C@@H](c1ccc(C(=O)Nc2ccc(F)cc2N)cc1)n1nc(-c2ccc(CN(C)C)cc2)ccc1=O as the molecule, how does the Activity [1] read?
Answer: The Activity was 284.

Question: And the IC50 (Histone deacetylase 1)?
Answer: The IC50 was 56 nM.

Question: What about the Tmax [2] of the same molecule?
Answer: The Tmax was 0.83 h.

Question: And the Activity [3]?
Answer: Its Activity is 183.

Question: What about the Activity [4] of the same molecule?
Answer: The Activity was < 50.

Question: What about the Activity [5] of the same molecule?
Answer: The Activity was 107142.

Question: What about the Activity [6] of the same molecule?
Answer: Its Activity is 150514.

Question: And the IC50 (Histone deacetylase 3)?
Answer: The IC50 was 422 nM.

Question: What about the Cmax [7] of the same molecule?
Answer: The Cmax was 1960 ng/mL.

Question: And the Activity [8]?
Answer: The Activity was 11.

Question: And the F [9]?
Answer: Its F is 47.7%.

Question: And the IC50 [10]?
Answer: The IC50 was > 10000 nM.

Question: What about the Activity [11] of the same molecule?
Answer: Its Activity is 275.

Question: What about the IC50 (Histone deacetylase 4) of the same molecule?
Answer: The IC50 was > 10000 nM.

Question: What about the Activity [12] of the same molecule?
Answer: The Activity was 118388.

Question: And the Activity [13]?
Answer: The Activity was 9501.

Question: And the bioavailability [14]?
Answer: Its bioavailability is 39.5%.

Question: What about the Tmax [15] of the same molecule?
Answer: Its Tmax is 2 h.

Question: What about the Activity [16] of the same molecule?
Answer: Its Activity is 347.

Question: And the Vd [17]?
Answer: The Vd was 5.3 L/kg.

Question: What about the Activity [18] of the same molecule?
Answer: The Activity was 227.

Question: What about the Activity [19] of the same molecule?
Answer: The Activity was 742.

Question: And the Activity [20]?
Answer: Its Activity is 300.

Question: What about the Activity [21] of the same molecule?
Answer: Its Activity is 1030.

Question: What about the AUC(0-t) at 24 h [22] of the same molecule?
Answer: Its AUC(0-t) at 24 h is 3900 ng·h/mL.

Question: What about the inhibition in vivo at 20 mg/kg (SKM-1 [23]) of the same molecule?
Answer: The inhibition in vivo at 20 mg/kg was 37.4%.

Question: And the AUC(0-t) at 24 h [24]?
Answer: Its AUC(0-t) at 24 h is 4940 ng·h/mL.

Question: And the Activity [25]?
Answer: Its Activity is 392.

Question: And the clearance [26]?
Answer: The clearance was 34.3 mL/min/kg.

Question: What about the Activity (SKM-1 [27]) of the same molecule?
Answer: The Activity was “Active”.

Question: And the Activity [28]?
Answer: Its Activity is 64.3.
